Drawing on paper PMC7146753, “Self-Assembly, Nematic Phase Formation, and Organocatalytic Behavior of a Proline-Functionalized Lipopeptide” (ACS Applied Materials & Interfaces, 2020), this text covers IC50 for 2 compounds.

As a reminder, the IC50 is the midpoint of a concentration-inhibition curve. Low values mean greater potency in that assay, high ones weaker potency in that assay.

Assay [1] relates to human dermal fibroblast (HDFa) cells. To be noted: 72 h.
Assay [2] has as its system human breast cancer (MCF-7) cells. The settings on record: 72 h.

Where a SMILES comes first, the peptide text is derived from it. The star is where a group is joined. Palmitoyl = CCCCCCCCCCCCCCCC(=O)*; NHhexadecyl = CCCCCCCCCCCCCCCCN*

In the case of `CCCCCCCCCCCCCCCC(=O)N[C@H](C(=O)N[C@@H](CCCCN)C(=O)N1CCC[C@H]1C(=O)N[C@@H](CCC(=O)O)C(=O)N[C@@H](C)C(=O)N1CCC[C@H]1C(=O)O)[C@@H](C)CC` [C16-IKPEAP] (Palmitoyl-IKPEAP-OH), the IC50 in assay [1] was 390 µM; in assay [2] it was 630 µM.
In the same order, the values of `CCCCCCCCCCCCCCCCNC(=O)[C@@H](NC(=O)[C@H](CCCCN)NC(=O)[C@@H]1CCCN1C(=O)[C@H](CCC(=O)O)NC(=O)[C@H](C)NC(=O)[C@@H]1CCCN1)[C@@H](C)CC` [PAEPKI-C16] (H-PAEPKI-NHhexadecyl) are 100 µM and 230 µM.
